Patent US20250073210A1, “Use of Ergothioneine for Enhancing Glutathione Level” (priority 2022, published 2025)
Values joined by “and” are separate entries in the source; they are usually repeats but may differ in a detail not shown here. Equal entries are not always repeated. Where two headings read alike, the source gives them in different places.

Columns and labels:
MT1G = test: RT-qPCR PCR array mQPA-8-Nrf2, MT1G expression in NHEK; type: cell-based, human; conditions: basal conditions, 20 μM
Protocol: (§1) In the present study, the effects of compound L-Ergothioneine were investigated in normal human epidermal keratinocytes (NHEK) under basal or UV-irradiated conditions. More specifically, the effects of this compound were evaluated using RT-qPCR technology. Extracted mRNA was analyzed using a PCR array (“mQPA-8-Nrf2”) for the analysis of 8 target genes (including 1 housekeeping gene) selected for their role in Nrf2 pathway. Prior to this assay, a preliminary cytotoxicity assay was performed on compound L-Ergothioneine and Resveratrol (reference in basal condition) using a standard WST-8 reduction assay, in order to determine the concentrations to be tested in this study.
(§2) Cell type: Normal human epidermal keratinocytes (NHEK) used at the 3rd passage. Culture conditions: 37° C., 5% CO2. Culture medium: Keratinocyte-SFM optimized for the assay, supplemented with Epidermal Growth Factor Pituitary extract. Assay medium: Keratinocyte-SFM optimized for the assay. Test compound: L-Ergothioneine in ultrapure water. Test concentrations: 0.5, 3 and 30 μM. Reference: Resveratrol. Test concentration: 20 μM.
(§3) Keratinocytes were seeded in 24-well plates and cultured for 24 hours in culture medium and in assay medium for a further 24 hours. The medium was then replaced by assay medium containing or not (control) the compound or Resveratrol and cells were pre-incubated for 24 hours.
(§4) After pre-incubation, the medium was then removed and replaced by a PBS solution. For basal conditions, the plate was kept in the dark during the irradiation time. For irradiated conditions, the cells were irradiated with UVB−275 mJ/cm^2 (+UVA−2 J/cm^2) using a SOL500 Sun Simulator equipped with an H2 filter (Dr. Hönle, AG). After irradiation time, the treatments were renewed, and the cells were incubated for 24 hours. All experimental conditions were performed in n=3. At the end of incubation, the cells were washed in phosphate buffered saline (PBS) solution and immediately frozen at −80° C.
(§5) The expression of markers was analyzed using RT-qPCR method on total RNA extracted from the cell monolayers of each experimental condition (before RNA extraction, the replicates of the same experimental condition were pooled). The analysis of transcripts was performed in n=2 using a PCR array dedicated to research and adapted to ‘screening’ format and targeting 8 genes selected for their role in Nrf2 pathway.
(§6) Total RNA was extracted from each sample using TriPure Isolation Reagent® according to the supplier's instructions. The amount and quality of RNA were evaluated using capillary electrophoresis (Bioanalyzer 2100, Agilent technologies). The complementary DNA (cDNA) was synthetized by reverse transcription of total RNA in presence of oligo(dT) and «Transcriptor Reverse Transcriptase» (Roche Molecular System Inc.). The cDNA quantities were then adjusted before PCR.
(§7) The PCR (Polymerase Chain Reaction) were performed using the «LightCycler®» system (Roche Molecular System Inc.) according to the supplier's instructions. The reaction mix (10 μl final) was prepared as follows: 2.5 μl of cDNA; primers (forward and reverse); reagent mix (Roche) containing taq DNA polymerase, SYBR Green I and MgCl2.
(§8) The incorporation of fluorescence in amplified DNA was continuously measured during the PCR cycles. […] The value selected for RE calculations is the “output point” (Ct) of the fluorescence curve. For a considered marker, the highest is the cycle number; the lowest is the mRNA quantity. The RE value was calculated with the formula: (½^number of cycles)×10^6. The PCR array used in the present study included 1 reference gene (RPS28).

NHEK = test: Morphological observation of cells at the end of the culture, irradiated condition; type: cell-based, human
Protocol: as §3, §4

TXNRD1 = test: RT-qPCR PCR array mQPA-8-Nrf2, TXNRD1 expression in NHEK; type: cell-based, human; conditions: basal conditions, 20 μM
Protocol: as §1, §2, §3, §4, §5, §6, §7, §8

Nrf2 pathway = test: Gene expression profile of keratinocytes (mQPA-8-Nrf2 array as a whole); type: cell-based, human; conditions: basal, tested at 20 μM
Protocol: as §1, §2, §3, §4, §5

TXN = test: RT-qPCR PCR array mQPA-8-Nrf2, TXN expression in NHEK; type: cell-based, human; conditions: basal conditions, 20 μM
Protocol: as §1, §2, §3, §4, §5, §6, §7, §8

[1] = test system: normal human epidermal keratinocytes (NHEK); test: Preliminary cytotoxicity assay (WST-8 reduction, viability and morphological observations); type: cell-based; conditions: 24 hours; for Viability (%): single replicates
Protocol: as §1, §2
(§9) Cell type: NHEK in assay medium. Incubation time: 24 hours.
(§10) After treatment, the cells were incubated with WST-8 (highly water-soluble tetrazolium salt) reduced in a water-soluble orange colored product (formazan) by succinate dehydrogenase (mitochondrial enzyme). This transformation is proportional to the number of living cells and their metabolic activity. The optical density (OD) of the extracts at 450 nm was recorded with a spectrometer (VERSAmax, Molecular Devices).

[2] = as above; type: cell-based, human; conditions: human, normal human epidermal keratinocytes (NHEK)
Protocol: as §1, §2, §9, §10

HMOX1 = test: RT-qPCR PCR array mQPA-8-Nrf2, HMOX1 expression in NHEK; type: cell-based, human; conditions: basal conditions, 20 μM
Protocol: as §1, §2, §3, §4, §5, §6, §7, §8

RPS28 = test: RT-qPCR PCR array mQPA-8-Nrf2, housekeeping gene RPS28; type: cell-based, human; conditions: basal conditions, 20 μM
Protocol: as §1, §2, §3, §4, §5, §6, §7, §8

NQO1 = test: RT-qPCR PCR array mQPA-8-Nrf2, NQO1 expression in NHEK; type: cell-based, human; conditions: basal conditions, 20 μM
Protocol: as §1, §2, §3, §4, §5, §6, §7, §8

GCLM = test: RT-qPCR PCR array mQPA-8-Nrf2, GCLM expression in NHEK; type: cell-based, human; conditions: basal conditions, 20 μM
Protocol: as §1, §2, §3, §4, §5, §6, §7, §8

GCLC = test: RT-qPCR PCR array mQPA-8-Nrf2, GCLC expression in NHEK; type: cell-based, human; conditions: basal conditions, 20 μM
Protocol: as §1, §2, §3, §4, §5, §6, §7, §8

[3] = 24 hours of incubation, read-out: Viability Mean (%)
[4] = single replicates, 24 hours, read-out: Viability (%)

Oc1ccc(C=Cc2cc(O)cc(O)c2)cc1 [Resveratrol]
MT1G % Control RPS28 (MT1G): 79 % Control | Viability of NHEK under irradiated condition (NHEK): strongly impacted | TXNRD1 % Control RPS28 (TXNRD1): 492 % Control | Expression of genes involved in oxidative and cellular stress response (Nrf2 pathway): stimulation of the expression of all genes (except MT1G) | TXN % Control RPS28 (TXN): 345 % Control | Morphological observations ([1]; 0.247 μM): + | Morphological observations ([1]; 0.741 μM): + | Morphological observations ([1]; 2.2 μM): + | Morphological observations ([1]; 6.7 μM): + | Morphological observations ([1]; 20 μM): + | Morphological observations ([1]; 540 μM): −, * | Viability (%) ([1]; 0.247 μM): 98% | Viability (%) ([1]; 0.741 μM): 100% | Viability (%) ([1]; 2.2 μM): 105% | Viability (%) ([1]; 6.7 μM): 108% | Viability (%) ([1]; 20 μM): 88% | Viability (%) ([1]; 60 μM): 67% and 64% | Viability (%) ([1]; 180 μM): 29% | viability at 24 h, 0.247 µM [2, 3]: 99% | viability at 24 h, 0.741 µM [2, 3]: 101% | viability at 24 h, 2.2 µM [2, 3]: 106% | viability at 24 h, 6.7 µM [2, 3]: 106% | viability at 24 h, 20 µM [2, 3]: 93% | viability at 24 h, 60 µM [2, 3]: 65% | viability at 24 h, 180 µM [2, 3]: 31% | viability at 24 h, 540 µM [2, 3]: 8% | viability at 24 h, 0.247 µM [2, 4]: 101% | viability at 24 h, 0.741 µM [2, 4]: 102% | viability at 24 h, 2.2 µM [2, 4]: 109% | viability at 24 h, 6.7 µM [2, 4]: 109% | viability at 24 h, 20 µM [2, 4]: 97% | viability at 24 h, 60 µM [2, 4]: 65% | viability at 24 h, 180 µM [2, 4]: 32% | viability at 24 h, 540 µM [2, 4]: 8% | HMOX1 % Control RPS28 (HMOX1): 451 % Control | RPS28 % Control RPS28 (RPS28): 100 % Control | NQO1 % Control RPS28 (NQO1): 1468 % Control | GCLM % Control RPS28 (GCLM): 736 % Control | GCLC % Control RPS28 (GCLC): 554 % Control
